Several values for one entry are separate records, joined by “and”; a condition that tells them apart may be missing. Identical values can stand only once.

The term melting point denotes the temperature of the solid-liquid transition.

Turning to `Nc1ccc(C=C/C(=N/O)c2ccccc2)cc1` [4-[(3Z)-3-(hydroxyimino)-3-phenylprop-1-en-1-yl]aniline], the melting point stood at 139 °C. Regarding `ClCc1ccc(Br)cc1` [4-bromobenzyl chloride], the melting point came to 40 °C. As to `Cc1ccc(N)cc1C` [3,4-dimethylaniline], the melting point amounted to 51 °C. `CN(C)[C@@H]1C(O)=C(C(N)=O)C(=O)[C@@]2(O)C(O)=C3C(=O)c4c(O)cccc4[C@@](C)(O)[C@H]3C[C@@H]12` [Tetracycline] had a melting point of 165 °C. In turn, `O=[N+]([O-])c1ccc(CCl)cc1` [4-nitrobenzyl_chloride] showed a melting point of 73 °C. On to `CC(=O)Nc1ccc([N+](=O)[O-])cc1` [4'-nitroacetanilide], for which the melting point amounted to 216 °C. In turn, `COC(=O)CC(N)=O` [methyl malonamate] had a melting point of 39 °C. Under `CC(C)(C)OOC(=O)c1ccccc1` [tert-Butyl benzenecarboperoxoate] stands 8 °C; under `CCCN(CCC)CCC` [N,N-Dipropylpropan-1-amine], -93.5 °C. With `Cc1cc(C(=O)OCC(=N)O)c(C)n1-c1ccc(F)cc1` [OSM-S-05], the melting point was found to be 178 °C. Turning to `O=C(CBr)c1ccc2c(c1)OCCCO2` [7-bromoacetyl-3,4-dihydro-1,5-benzodioxepin], the melting point turned out to be 76 °C. In turn, `C(=NC1CCCCC1)=NC1CCCCC1` [N,N'-dicyclohexylcarbodiimide] returned a melting point of 35 °C. In the case of `COCC(CCC(=O)OC)N1CC=CC1` (stereo unspecified) [methyl 4-(2,5-dihydro-1H-pyrrol-1-yl)-5-methoxypentanoate], the melting point amounted to 145 °C.

For the compound `CC[C@@]1(O)C(=O)OCc2c1cc1n(c2=O)Cc2cc3ccccc3nc2-1` [Camptothecin], the melting point was determined as 276 °C. Regarding `FC(F)(F)c1cc(-c2cccs2)nc2cc(-c3cccs3)nn12`, the melting point is 159 °C. Take `CCCCCCCCCC(C)=O` [2-undecanone]: the melting point was determined as 13 °C.

Compound `N#Cc1ccncc1` [4-cyanopyridine] gave a melting point of 78 °C.

As to `CCOC1Oc2ccc(C)cc2C(=O)/C1=C\Nc1nc2ccc(Cl)cc2s1` (stereo unspecified), the melting point worked out at 147 °C.

`Brc1c(Br)c(Br)c(Br)c(Br)c1Br` [hexabromobenzene] had a melting point of 306 °C.

`O=C(O)C[C@@H](O)C(=O)O` [D-malic acid]: the melting point stood at 102 °C.

Compound `ClC(Cl)(Cl)Cl` [Tetrachloromethane] showed a melting point of -23 °C.

Turning to `C[C@@H]1CC=CC=CC=CC=C[C@H](OC2O[C@H](C)[C@@H](O)[C@H](N)[C@@H]2O)C[C@@H]2O[C@](O)(C[C@@H](O)C[C@H]3O[C@@H]3C=CC(=O)O1)C[C@H](O)[C@H]2C(=O)O` (stereo partly specified) [Natamycin], the melting point stood at 290 °C.

`O=C(O)/C(=C/c1ccccc1)c1ccc([N+](=O)[O-])cc1` [(E)-2-(4-nitrophenyl)-3-phenylpropenoic acid] displayed a melting point of 228 °C. Take `Cc1c(C)c(C)c(CCl)c(C)c1C` [2,3,4,5,6-pentamethylbenzyl chloride]: the melting point is 83 °C. The compound `CCCc1ccc(-c2ccc(C(=O)O)cc2)cc1` [4'-n-propylbiphenyl-4-carboxylic acid] displayed a melting point of 226 °C.

The compound `COC1=CC(=O)C=C(OC)C1=O` [2,6-dimethoxy-p-benzoquinone] returned a melting point of 255 °C. `COc1ccc(-c2csc(/C(C#N)=N/Nc3ccc(C)cc3)n2)cc1` registered a melting point of 152 °C. The compound `O=[N+]([O-])c1ccc(Cl)cc1[N+](=O)[O-]` [1-chloro-3,4-dinitrobenzene] displayed a melting point of 23 °C. Compound `COc1ccc(C#N)cc1Br` [3-bromo-4-methoxybenzonitrile] gave a melting point of 122 °C.

Compound `O=S(c1ccccc1)c1ccccc1` [diphenyl sulfoxide] yielded a melting point of 71 °C. On to `COc1ccc(OC)c(B(O)O)c1` [2,5-dimethoxybenzeneboronic acid], for which the melting point came to 93 °C. Consider `O=c1ncn2nc(Sc3ccccc3)ccc2c1-c1c(Cl)cccc1Cl`, for which the melting point stood at 264 °C. `COC(=O)NN` [methyl carbazate] returned a melting point of 72 °C. In turn, `CC(=O)N/C=C/c1ccccc1[N+](=O)[O-]` [N-[(E)-2-(2-nitrophenyl)ethenyl]acetamide] showed a melting point of 150 °C.

As for `Cc1c(CN2CCOC(c3ccccc3)C2C)c(=O)n(-c2ccccc2)n1C` (stereo unspecified) [morazone], the melting point came out at 149 °C. In the case of `O=C(O)c1c(Cl)cc(Cl)cc1Cl` [2,4,6-trichlorobenzoic acid], the melting point amounted to 163 °C. With `OB(O)c1cc(F)c(F)cc1F` [2,4,5-trifluorobenzeneboronic acid] the figure was 100 °C.

The compound `CC(=O)c1cccc2ccccc12` [1-acetylnaphthalene] returned a melting point of 10 °C. As for `C(=N\c1ccccc1)/c1ccccc1` [benzalaniline], the melting point was 51 °C and 49 °C and 46 °C. For the compound `CCOC=O` [ethyl_formate], the melting point is -80 °C. For `CCN1CCOCC1` [4-ethylmorpholine], the melting point is -63 °C. `COC(=O)c1ccc(OC)cc1` [methyl 4-methoxybenzoate] displayed a melting point of 50 °C. For the compound `CC(=O)Nc1ccccc1C(C)C` [2'-isopropylacetanilide], the melting point was found to be 73 °C. `Cc1cn([C@H]2C[C@H](N=[N+]=[N-])[C@@H](CO)O2)c(=O)[nH]c1=O` [Zidovudine] came in with a melting point of 109 °C. The compound `COc1ccc2cc(C(C)CO)ccc2c1` (stereo unspecified) [Naproxol] returned a melting point of 87 °C. In turn, `CCc1ccccc1B(O)O` [2-ethylbenzeneboronic acid] displayed a melting point of 97 °C. With `N#CCc1ccc(O)cc1` [4-hydroxyphenylacetonitrile] the figure was 69 °C; with `O=Cc1ccc(C(=O)O)cc1` [p-formyl_benzoic_acid], 247 °C. Consider `Cc1cc(Cl)c(C)cc1N` [4-chloro-2,5-dimethylaniline], for which the melting point came to 92 °C.

In the case of `O=Cc1cccc([N+](=O)[O-])c1` [m-nitrobenzaldehyde], the melting point was determined as 59 °C. `CC(=O)Nc1ccc(O)cc1` [paracetamol] came in with a melting point of 169 °C.

In the case of `Cc1ccc(C(=O)OC2CC(C#N)OC2OC(=O)c2ccc(C)cc2)cc1` (stereo unspecified), the melting point amounted to 111 °C. Under `O=Cc1cc([N+](=O)[O-])cc([N+](=O)[O-])c1O` [3,5-dinitrosalicylaldehyde] stands 73 °C; under `CC(C)(C)c1ccc(N)cc1` [4-tert-butylaniline], 16 °C; under `O=C(CC(=O)c1ccccc1O)c1ccccc1` [benzoyl(2-hydroxybenzoyl)methane], 120 °C. Consider `Nc1ccc(S(=O)(=O)Nc2nccs2)cc1` [4-Amino-N-(1,3-thiazol-2-yl)benzenesulfonamide], for which the melting point turned out to be 202 °C. Compound `COc1cc(C(C)=O)cc(OC)c1O` [3',5'-dimethoxy-4'-hydroxyacetophenone] returned a melting point of 119 °C. Turning to `O=C(c1ccccc1)c1ccccn1` [2-benzoylpyridine], the melting point was 43 °C. `COc1cc(/C=C/C(=O)CC(=O)/C=C/c2ccc(O)c(OC)c2)ccc1O` [curcumin] returned a melting point of 173 °C. With `C#CCO` [propargyl_alcohol], the melting point is -17 °C. Under `OCC(F)(F)C(F)(F)CO` [2,2,3,3-tetrafluoro-1,4-butanediol] stands 84 °C; under `COP(=S)(OC)Oc1cc(Cl)c(Cl)cc1Cl` [Fenchlorphos], 38 °C. Compound `COc1cc(Br)cc(OC)c1OC` [5-bromo-1,2,3-trimethoxybenzene] displayed a melting point of 79 °C. Consider `OB(O)c1c(F)cc(F)c(F)c1F` [2,3,4,6-tetrafluorobenzeneboronic acid], for which the melting point came out at 127 °C. Compound `CCCCCC(=O)CCCCC` [6-undecanone] yielded a melting point of 15 °C. For the compound `O=C[C@H](O)[C@H](O)[C@H](O)CO` [D-ribose], the melting point stood at 84 °C. With `CCOC(=O)c1ccc([N+](=O)[O-])cc1` [ethyl_4-nitrobenzoate] the figure was 58 °C; with `Nc1ccccc1CO` [o-amino_benzyl_alcohol], 83 °C; with `c1ccc(C2CCCCC2)cc1` [cyclohexylbenzene], 6 °C. `CCC(O)C(C)(C)C` (stereo unspecified) [2,2-dimethyl-3-pentanol] had a melting point of -5 °C. Compound `Nc1ncc(Br)cc1[N+](=O)[O-]` [2-amino-5-bromo-3-nitropyridine] came in with a melting point of 208 °C. On to `CCCCCc1ccc(-c2ccccc2)cc1` [4-n-pentylbiphenyl], for which the melting point is 10 °C.

For the compound `CC1(C)c2ccccc2Oc2ccccc21` [9,9-dimethylxanthene], the melting point amounted to 42 °C. In the case of `COc1ncccc1B(O)O` [2-methoxypyridine-3-boronic acid], the melting point is 137 °C. `Nc1ccncc1N` [3,4-diaminopyridine] showed a melting point of 219 °C. `N#Cc1c(OCC(F)(F)F)cccc1OCC(F)(F)F` [2,6-bis(2,2,2-trifluoroethoxy)benzonitrile]: the melting point is 116 °C. The compound `OC(c1ccccc1)(c1ccccc1)C(O)(c1ccccc1)c1ccccc1` [1,1,2,2-Tetraphenylethane-1,2-diol] displayed a melting point of 171 °C.

`O=c1c2ccccc2sc2ccccc12` [thioxanthen-9-one]: the melting point was 212 °C.

In turn, `Nc1cc2ccccc2cc1N` [Naphthalene-2,3-diamine] registered a melting point of 190 °C. With `Oc1ccc(I)cc1` [4-iodophenol] the figure was 93 °C; with `C=Cc1ccccc1C` [2-methylstyrene], -69 °C. Under `C=C(C)Cn1c(N)cc(=O)n(C)c1=O` [amisometradine] stands 175 °C. Under `O=C(O)/C=C/c1cccc(Cl)c1` [m-chlorocinnamic_acid__(trans)] stands 159 °C. Regarding `Sc1ccccn1` [Pyridine-2-thiol], the melting point turned out to be 129 °C. Consider `CN[C@@H](C)[C@@H](O)c1ccccc1` [Pseudoephedrine], for which the melting point amounted to 118 °C.

For `CCN(CC)C(=O)Nc1ccc(OCC(O)CNC(C)(C)C)c(C(C)=O)c1` (stereo unspecified) [celiprolol], the melting point is 110 °C.
